Laboratory results published in US20110112308A1 (NOVARTIS AG, priority 2006, published 2011).

Columns and labels:
[1] = pH of saturated solution or 1% suspension in water; format: physicochemical; settings: room temperature
Protocol: pH Value: The pH at room temperature of a saturated solution or 1% suspension of the drug substance in water was recorded.

[2] = Equilibration in solvents and buffers: form conversion; settings: water / aqueous solutions
[3] = Stability of mixtures with excipients; format: physicochemical
Protocol: (§1) All samples were prepared/diluted to a concentration of 0.2 mg/mL in methanol prior to analysis by HPLC. A freshly prepared sample of each salt was used as the reference standard for external standard calibration analysis.

[4] = Solubility, 24-hour equilibration at room temperature; format: physicochemical; settings: for Solubility: approx. at 25° C.
In short: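 20-50 mg sample in 1 ml solvent, equilibrated 24 h at room temperature. Dissolved amount measured gravimetrically or by UV-VIS, and pH of the clear solution recorded; salts may dissociate to free form, affecting solubility and pH.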

[5] = pH of saturated solution or 1% suspension in water; format: physicochemical; settings: In pH = 6.8 buffer
[6] = Intrinsic dissolution rate, rotation disk method; format: physicochemical; settings: for Intrinsic Dissolution Rate: 37° C., 200 r.p.m.
In short: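 Pellets of drug substance dissolved by rotating disk at 200 r.p.m. into a 500 mL vessel at 37 °C. Dissolved drug monitored continuously by recirculating the medium through a UV cell.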

Solid-state stability = format: physicochemical; settings: for Bulk stability (XRPD): 1 week
Protocol: as §1

[7] = Solution stability (HPLC); format: physicochemical
Protocol: as §1

[8] = Mixture 1: 50% PVP + 50% Crospovidone, 50° C./75% r.h., 2 weeks
[9] = Mixture 2: 50% Starch 1500 + 5% MCC 102, 50° C./75% r.h., 2 weeks
[10] = Mixture 3: 5% PVP + 5% Crospovidone + 10% Starch 1500 + 80% MCC 102, 50° C./75% r.h., 2 weeks
[11] = Mixture 4: 99% Lactose + 1% BHT/BHA, 50° C./75% r.h., 2 weeks
[12] = Mixture 5: 99% Mannitol + 1% BHT/BHA, 50° C./75% r.h., 2 weeks
[13] = Mixture 6: 50% Mannitol + 47% HPCLH21 + 1% BHT/BHA + 2% Magnesium Stearate, 50° C./75% r.h., 2 weeks
[14] = Mixture 7: 50% Cetyl Alcohol + 49% HPCLH21 + 1% Magnesium Stearate, 50° C./75% r.h., 2 weeks
[15] = Bulk stability, 2 weeks, 50° C.
[16] = Bulk stability, 2 weeks, 50° C./20% water
[17] = Bulk stability, 2 weeks, 50° C./75% r.h.
[18] = Light study, 1200 kLux (300-800 nm)
[19] = 2 mg/mL in methanol, 1 week at 50° C.
[20] = 2 mg/mL in water, 1 week at 50° C.
[21] = 2% in 0.5% HPMC 4000, 1 day at RT
[22] = 2% in 0.5% Klucel HF, 1 day at RT
[23] = 2% in 0.8% Tween 80, 1 day at RT
[24] = 5% solution, 1 day at RT (diluted 1:100 in pH 6.8 buffer)

Question: For `CS(=O)(=O)O.Cc1[nH]c2ccccc2c1CCNCc1ccc(/C=C/C(=O)NO)cc1` [Mesylate, 1:1 mesylate salt of N-hydroxy-3-[4-[[[2-(2-methyl-1H-indol-3-yl)ethyl]amino]methyl]phenyl]-2E-2-propenamide], which “pH of saturated solution” value [1] is on record?
Answer: 4.34

Question: What about the conversion upon equilibration [2] of the same compound?
Answer: polymorphic transformation

Question: And the “% DP (total degradation products)” value [3, 8]?
Answer: 0.8 % area

Question: What about the “% DS (drug substance)” value [3, 8] of the same compound?
Answer: 99.2 % area

Question: And the “% DP (total degradation products)” value [3, 9]?
Answer: 0.7 % area

Question: And the “% DS (drug substance)” value [3, 9]?
Answer: 99.3 % area

Question: What about the “% DP (total degradation products)” value [3, 10] of the same compound?
Answer: 0.7 % area

Question: What about the “% DS (drug substance)” value [3, 10] of the same compound?
Answer: 99.3 % area

Question: What about the “% DP (total degradation products)” value [3, 11] of the same compound?
Answer: 0.8 % area

Question: What about the “% DS (drug substance)” value [3, 11] of the same compound?
Answer: 99.2 % area

Question: What about the “% DP (total degradation products)” value [3, 12] of the same compound?
Answer: 0.8 % area

Question: What about the “% DS (drug substance)” value [3, 12] of the same compound?
Answer: 99.2 % area

Question: What about the “% DP (total degradation products)” value [3, 13] of the same compound?
Answer: 0.7 % area

Question: And the “% DS (drug substance)” value [3, 13]?
Answer: 99.3 % area

Question: What about the “% DP (total degradation products)” value [3, 14] of the same compound?
Answer: 0.6 % area

Question: And the “% DS (drug substance)” value [3, 14]?
Answer: 99.4 % area

Question: And the “% DP (total degradation products)” value ([3]; Standard, freshly prepared)?
Answer: 0.5 % area

Question: What about the “% DS (drug substance)” value ([3]; Standard, freshly prepared) of the same compound?
Answer: 99.5 % area

Question: What about the “stability with all excipient mixtures tested, in words” value ([3]; after 2 weeks at 50° C./75% r.h.) of the same compound?
Answer: very good stability

Question: What about the aqueous solubility [4] of the same compound?
Answer: 12900 µg/mL

Question: And the “solubility in methanol and ethanol, in words” value [4]?
Answer: high

Question: What about the “solubility in other common / remaining organic solvents, in words” value [4] of the same compound?
Answer: appreciable

Question: And the Solubility ([4]; 0.1N HCl)?
Answer: 600 µg/mL

Question: And the Solubility ([4]; 2-Propanol)?
Answer: 2200 µg/mL

Question: And the Solubility ([4]; Acetone)?
Answer: 3000 µg/mL

Question: What about the Solubility ([4]; Ethanol) of the same compound?
Answer: 14600 µg/mL

Question: And the Solubility ([4]; Ethyl acetate)?
Answer: 6400 µg/mL

Question: And the Solubility ([4]; Methanol)?
Answer: >115000 µg/mL

Question: And the Solubility ([4]; Propylene glycol)?
Answer: 46500 µg/mL

Question: What about the Solubility ([4]; Water) of the same compound?
Answer: 12900 µg/mL

Question: And the “behaviour of clear aqueous solutions on storage” value ([4]; concentration below the reported solubility, precipitate found to be the free base)?
Answer: solid precipitation occurred

Question: And the “approximate solubility in water as %” value ([4]; estimated from mg/mL assuming solution density 1 g/mL)?
Answer: 1.3%

Question: And the Solubility ([4]; pH = 6.8 buffer)?
Answer: 4100 µg/mL

Question: What about the “pH of saturated solution” value [5] of the same compound?
Answer: 5.38

Question: What about the “intrinsic dissolution (rate), in words” value [6] of the same compound?
Answer: high

Question: What about the “Intrinsic Dissolution Rate” value ([6]; HCl 0.1N) of the same compound?
Answer: 6.51 mg min^−1 cm^−2

Question: And the “Intrinsic Dissolution Rate” value ([6]; Water, free base pellet disintegrated, not true intrinsic rate)?
Answer: 10.17 mg min^−1 cm^−2

Question: And the “Bulk stability (XRPD)” value (Solid-state stability; 80° C.)?
Answer: No change

Question: And the “Bulk stability (XRPD)” value (Solid-state stability; 80° C./75% r.h.)?
Answer: No change

Question: And the “% DP (total degradation products)” value (Solid-state stability; [15])?
Answer: 0.80 % area

Question: What about the assay (Solid-state stability; [15]) of the same compound?
Answer: [99.35]

Question: And the “% DP (total degradation products)” value (Solid-state stability; [16])?
Answer: 1.48 % area

Question: And the assay (Solid-state stability; [16])?
Answer: [97.36]

Question: What about the “% DP (total degradation products)” value (Solid-state stability; [17]) of the same compound?
Answer: 1.20 % area

Question: What about the assay (Solid-state stability; [17]) of the same compound?
Answer: [100.0]

Question: And the “% DP (total degradation products)” value (Solid-state stability; [18])?
Answer: 1.16 % area

Question: What about the “CL (appearance)” value (Solid-state stability; [18]) of the same compound?
Answer: B (B = slight discoloration)

Question: And the assay (Solid-state stability; [18])?
Answer: [98.28]

Question: What about the “pH of initial mixture” value ([7]; 2 mg/mL in 100 mM lactate buffer, pH 3.5) of the same compound?
Answer: 3.48

Question: And the “% DP (total degradation products)” value [7, 19]?
Answer: 0.62 % area

Question: What about the assay [7, 19] of the same compound?
Answer: [101.2]

Question: And the “pH of initial mixture” value ([7]; 2 mg/mL in water)?
Answer: 6.55

Question: What about the “% DP (total degradation products)” value [7, 20] of the same compound?
Answer: 1.16 % area

Question: What about the assay [7, 20] of the same compound?
Answer: [99.30]

Question: What about the “% DP (total degradation products)” value ([7]; 2 mg/mL, 100 mM lactate buffer pH 3.5, 1 week at 50° C.) of the same compound?
Answer: 1.60 % area

Question: What about the assay ([7]; 2 mg/mL, 100 mM lactate buffer pH 3.5, 1 week at 50° C., external standard) of the same compound?
Answer: [99.25]

Question: What about the “% DP (total degradation products)” value ([7]; 2% in 0.5% CMC, 1 day at RT) of the same compound?
Answer: 0.74 % area

Question: What about the “CL (appearance)” value ([7]; 2% in 0.5% CMC, 1 day at RT) of the same compound?
Answer: A↓↓

Question: And the assay ([7]; 2% in 0.5% CMC, 1 day at RT)?
Answer: [79.72]

Question: And the “% DP (total degradation products)” value [7, 21]?
Answer: 0.66 % area

Question: What about the assay [7, 21] of the same compound?
Answer: [97.30]

Question: And the “% DP (total degradation products)” value [7, 22]?
Answer: 0.66 % area

Question: And the assay [7, 22]?
Answer: [97.63]

Question: What about the “% DP (total degradation products)” value [7, 23] of the same compound?
Answer: 0.63 % area

Question: What about the assay [7, 23] of the same compound?
Answer: [98.05]

Question: And the “% DP (total degradation products)” value [7, 24]?
Answer: 0.78 % area

Question: And the assay [7, 24]?
Answer: [99.30]

Question: And the “stability characteristics, in words” value ([7]; both in solution and in the solid state)?
Answer: very good stability

Question: What about the “Unstressed (% Area)” value ([7]; unstressed baseline of the stability study) of the same compound?
Answer: 99.30% Area
